Entries after “also recorded” stand apart in the source; their conditions may differ. Where two headings read alike, the source gives them in different places.

The subject of series [1] is Wnt/β-catenin signaling (beta-catenin activated reporter, BAR). The experiment in a line: High throughput small molecule screen, Wnt/β-catenin reporter in RKO cells. The series is classed as cell-based, human.
The test system is the same in series [2]. Briefly: High throughput small molecule screen, beta-catenin activated reporter (BAR) in HT22 cells. The series is classed as cell-based, mouse. The procedure: Compounds were dissolved in dimethylsulphoxide (DMSO). For the primary screen, performed in duplicate, HT22 cells stably expressing the beta-catenin activated reporter (BAR) were cultured in growth medium (DMEM/10% FBS/1% antibiotic). 3000 cells per well were transferred to 384-well clear bottom plates (Nalgene Nunc; Rochester, N.Y.) in 30 μL of growth medium. The following day, […] of compound and 10 μL of either growth media or WNT3A conditioned media (E.C.50 dose) was transferred to the cells. The next day each well was imaged using transmitted light with the ImageXpress Micro (Molecular devices; Sunnyvale, Calif.) followed by the addition of 10 μL of Steady-Glo (Promega; Madison, Wis.) as per the manufacture's instructions, and luminescence measurement on an EnVision Multilabel plate reader (PerkinElmer; Waltham, Mass.). Viability was scored by analyzing the ImageXpress images. As described in detail in Seiler et al. (Seiler et al., Nucleic Acids Res. 36:D351 (2008), which is hereby incorporated by reference in its entirety), each compound well received an algebraically signed Z-score corresponding to the number of standard deviations it fell above or below the mean of a well-defined mock-treatment distribution of DMSO controls. Z-score normalized data from the growth media stimulus group were sorted by average percent change. The fold-increase over the background of DMSO controls for each treatment was also calculated. Top compounds with the greatest percent change of activity with the growth media were then resorted based on the percent change with the WNT3A stimulus.
These compounds represent FDA approved compounds and drugs or known bioactive molecules. RKO (human colorectal carcinoma red line) and HT22 (mouse hyppocampal line) cell lines were screened. The lines were tested without a stimulus, in presence of an E.C.50 dose of Wnt 3A condition media and in presence of a subthreshold dose of LiCl.

In series [3] the test system is Axin2, Si/Gp100, Kit and other melanocytic genes. Briefly: Quantitative PCR of endogenous gene targets in B16 melanoma cells. The series is classed as cell-based, murine. The procedure: Cells were cultured for approximately 72 hours until they reached 80-90% confluency. RNA was purified using the RNeasy kit using the manufacturer's protocol (Qiagen; Maryland, MD). cDNA was synthesized using Superscript Reverse Transcriptase (Invitrogen; Grand Island, N.Y.). […] Quantitative PCR results presented in the manuscript are representative of experiments performed on a minimum of three biologic replicates.

For series [4], the system named is B16 cells. The experiment in a line: Proliferation of B16 cells by MTT assay. The series is classed as cell-based, murine.
The test system of another series is B16 melanoma cells. Briefly: B16 footpad tumor inoculation, tumor size and metastasis in C57BL/6 mice. The series is classed as in vivo. As to the method:
Footpad injections of transduced B16 melanoma cells and measurement of popliteal lymph node and lung metastasis was performed as previously described (Murakami et al., Cancer Res. 62:7328 (2002), which is hereby incorporated by reference in its entirety). […] Fumagalli et al., Exp. Neurol. 198:114 (2006), which are hereby incorporated by reference in their entirety). […] All animal studies were performed using IACUC protocols approved by institutional review boards.

In a further series the test system is Axin2 promoter. The experiment in a line: Secondary screen, firefly luciferase under the Axin2 promoter in HEK293T cells. The series is classed as cell-based. The note with it: alone and with WNT3A conditioned media.
Series [5] has as its system B16 cells. Briefly: Pigmentation of cultured B16 cells. The series is classed as cell-based, murine. The note with it: B16 cells treated for 2 passages, 10 μM.
Series [6] relates to human melanoma xenografts. The note with it: mouse model, Namkoong et al. 2007; cited from earlier work.
A further series concerns nuclear β-catenin. The experiment in a line: Immunofluorescent staining of β-catenin in B16 cells. The series is classed as cell-based, murine. Particulars: 10 mM lithium chloride or BIO, versus sodium chloride or DMSO. As to the method:
A polyclonal rabbit anti-β-catenin antibody was used for detection of β-catenin (1:1000 dilution for immunoblot, 1:200 dilution for immunohistochemistry). Cells were grown on 18 mm glass coverslips, for 48-72 hours, fixed using 4% paraformaldahyde, permeabilized using 0.25% Triton X-100, and then blocked with 10% goat serum. Goat anti-rabbit Alexa Fluor-568 antibody (Molecular Probes; Eugene, Oreg.) was diluted 1:1000. Cells were counterstained for nucleic acid with DAPI (Molecular Probes; Eugene, Oreg.). Paraffin-embedded nevus sections were stained using an antibody dilution of 1:200. Cellular lysates were obtained by lysing cells on plate with a 0.1% NP-40 based buffer and analyzed by NuPage 4-12% gradient gels (Invitrogen; Grand Island, N.Y.). The WNT5A antibody was obtained from Cell Signaling Technologies (Danvers, Mass.).

Series [7] in a line: Suitability for murine therapeutic trials (toxicity, serum levels). The series is classed as in vivo. Particulars: mice.
[8] abbreviates: RKO cells, in presence of a subthreshold dose of LiCl.
The mark [9] stands for this setting: RKO cells, in presence of an E.C.50 dose of Wnt 3A condition media.
The mark [10] stands for this setting: HT22 cells, in presence of a subthreshold dose of LiCl.
The mark [11] stands for this setting: HT22 cells, in presence of an E.C.50 dose of Wnt 3A condition media.
[12] abbreviates: 10 mM lithium chloride or 1 μM BIO.

With `CCCCCCCCCCCCCCCCCC(=O)O[C@H](CC(=O)[O-])C[N+](C)(C)C` [stearoylcarnitine], the “RKO Li” value in series [1] (setting [8]) is recorded as 0.92. In addition, the “RKO Wnt3a” value in series [1] (setting [9]) came out at 0.10. The “HT22 Li” value in series [2] (setting [10]) is 3.21. Moreover, in series [2] (setting [11]), the “HT22 Wnt3a” value was 0.38.

Regarding `Cc1[nH]c(=O)c(C#N)cc1-c1ccncc1` [milrinone], in [1], the “RKO Li” value is listed as 1.00 and the “RKO Wnt3a” value was determined as 1.20. In addition, in [2], the “HT22 Li” value worked out at 0.98 and the “HT22 Wnt3a” value is listed as 1.75.

As to `Nc1nc2ccc(OC(F)(F)F)cc2s1` [riluzole], the “Expression of melanocytic genes” value in [3] (72 hours, 10 mM lithium chloride or 10 μM riluzole) was “elevation in levels of melastatin (Trpm1) and Kit transcripts; also recorded: upregulation of melanocytic genes”. For the same molecule, the “Proliferation by MTT assay” value with B16 cells [4] (three days, 10 μM riluzole) is given as “decreased proliferation”. The “Sentinel popliteal lymph node metastasis (Firefly luciferase)” value in the series with B16 melanoma cells (9 mice per group, versus control mice with no treatment) was “significantly decreased metastasis”. The Tumor size entry in the series with B16 melanoma cells (after 21 days, treatment initiated one week post-injection, oral in drinking water) is recorded as “No significant difference”. Also, in the series with B16 melanoma cells (versus 3 out of 9 control mice), the “Lung metastasis, mice affected” value is reported as 0 out of 9. Further, in the series with Axin2 promoter, the “Activation of firefly luciferase under the Axin2 promoter” value is “both on its own as well as in synergy with WNT3A conditioned media”. In addition, the Pigmentation result in the series with B16 cells [5] was “increased pigmentation”. In addition, the “Proliferation / growth of human melanoma xenografts” value in series [6] is given as “could decrease proliferation of human melanoma xenografts”.

With azathioprine, the “RKO Li” value in series [1] (setting [8]) worked out at 1.06. Also, the “RKO Wnt3a” value in series [1] (setting [9]) worked out at 1.30. Further, in [2] (setting [10]), the “HT22 Li” value stood at 0.76. Also, the “HT22 Wnt3a” value in series [2] (setting [11]) is 2.67.

As for `O=C1Nc2cc(Br)ccc2/C1=C1/Nc2ccccc2/C1=N\O` [BIO, 6-bromoindirubin-3′-oxime], the “Axin2 levels by quantitative PCR” value in [3] (setting [12]) was “increased Axin2 levels”. For the same molecule, the “Nuclear β-catenin by immunofluorescent staining” value with nuclear β-catenin is “increased nuclear β-catenin”. The “Proliferation by MTT assay” value in the series on B16 cells [4] (setting [12]) was “decreased proliferation”. Further, in series [7], the “Obstacles to murine therapeutic trials” value is “several obstacles relating to both toxicity”.

In the case of `Cl.Cl.FC(F)(F)c1ccc2c(c1)N(CCCN1CCN(CCCl)CC1)c1ccccc1S2` [Fluphenazine-N-2-chloroethane, Dihydrochloride], in series [1], the “RKO Li” value stood at 4.27 and the “RKO Wnt3a” value turned out to be 0.08. In addition, in series [2], the “HT22 Li” value stood at 1.32 and the “HT22 Wnt3a” value was 0.13.

Values taken from US20110251144A1, “MOLECULAR MODULATORS OF THE WNT/BETA-CATENIN PATHWAY” (MASSACHUSETTS INSTITUTE OF TECHNOLOGY, priority 2008, published 2011).
